Data taken from patent publication US12528773B2, “Non-lysosomal glucosylceramidase inhibitors and uses thereof” (ALECTOS THERAPEUTICS INC., priority 2020, dated 2026).

Experiments:
GBA2 = GBA2 (Homo sapiens (Human), UniProt Q9HCG7); test: Inhibition of GBA2 in cell lysate (4-methylumbelliferone glucopyranoside substrate); format: biochemical; conditions: HEK293T-overexpressing GBA2 cellular homogenate, pH 5.5; read-out: GBA2 IC50;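 also: homogenate of stably transfected HEK293T cells pre-treated with a GCase inhibitor, test compound preincubated 5 min at 37 °C, substrate reaction 20 min at 37 °C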
[1] = tested on: rat intestinal alpha-glucosidases; test: Inhibition of rat intestinal alpha-glucosidases (rat intestinal lysate, glucose detection); format: biochemical; conditions: compound concentration 25 μM, sucrose as substrate
Experimental: Assay for Determination of Inhibition of Rat Intestinal Alpha-Glucosidases
Various concentrations of test compounds were prepared in DMSO and then diluted into buffer consisting of 100 mM citric acid, 200 mM disodium phosphate, pH 6.0. Rat intestinal acetone powder (Sigma) was dissolved to 12.5 mg/mL in assay buffer and sonicated in an ice bath, centrifuged, and the supernatant was collected, aliquoted and stored at −20° C. until use. On the day of the assay, the rat intestinal lysate was diluted to 6.25 mg/mL (sucrose reactions) and 2.1 mg/ml (maltose reactions) in assay buffer. The final reaction solutions for sucrose contained 2.1 mg/mL rat intestinal lysate, 40 mM sucrose, 50 or 25 μM of test compound, and 3.3% DMSO. The final reaction solution for maltose contained 0.69 mg/mL rat intestinal lysate, 10 mM maltose, 50 or 25 μM of test compound, and 3.3% DMSO. The reaction was initiated by the addition of substrate (sucrose or maltose) and allowed to proceed at 37° C. for 20 min to assess rat intestinal alpha-glycosidase activities. The reaction was stopped by addition of 20 μL of 2 M Tris-HCl, pH 7.0. The glucose produced during the reaction was detected using a commercial Amplex Red glucose detection kit from Thermo Fisher. For a full plate, the Amplex Red detection mixture was prepared by mixing 35 μL glucose oxidase, 35 μL horseradish peroxidase and 35 μL Amplex Red into 3395 μL 1× Amplex Red detection buffer. A total of 30 μL of detection mixture was added to each well. Fluorescence was measured in kinetic mode on a Biotek Synergy H4 plate reader at a wavelength of 573 nm for excitation and 610 nm for emission for 15 min and quantified from the data at 10 min. Incubations without added rat intestinal lysate were used to correct for the background amount of glucose present in the samples. Incubations without added test compound were used to define maximal enzyme activity. Percent inhibition of rat intestinal alpha-glucosidases was determined by dividing the amount of glucose detected in the presence of test compound by the amount of glucose detected in the maximal enzyme activity wells. All conditions were analyzed in triplicate. […] The final reaction solutions were the same as described above for the Amplex Red Detection kit. After a 20 min reaction time at 37° C., 100 μL of hexokinase glucose reagent was added to all test wells except for the no enzyme added control wells and no test compound added wells. The plate was incubated for a further 15 min at room temperature and the absorbance was read at 340 nm on a Biotek Synergy H4 plate reader. The percent inhibition of rat intestinal alpha-glucosidases was determined in a similar manner as described above.

Chain of GBA2 (Q9HCG7 whole entry): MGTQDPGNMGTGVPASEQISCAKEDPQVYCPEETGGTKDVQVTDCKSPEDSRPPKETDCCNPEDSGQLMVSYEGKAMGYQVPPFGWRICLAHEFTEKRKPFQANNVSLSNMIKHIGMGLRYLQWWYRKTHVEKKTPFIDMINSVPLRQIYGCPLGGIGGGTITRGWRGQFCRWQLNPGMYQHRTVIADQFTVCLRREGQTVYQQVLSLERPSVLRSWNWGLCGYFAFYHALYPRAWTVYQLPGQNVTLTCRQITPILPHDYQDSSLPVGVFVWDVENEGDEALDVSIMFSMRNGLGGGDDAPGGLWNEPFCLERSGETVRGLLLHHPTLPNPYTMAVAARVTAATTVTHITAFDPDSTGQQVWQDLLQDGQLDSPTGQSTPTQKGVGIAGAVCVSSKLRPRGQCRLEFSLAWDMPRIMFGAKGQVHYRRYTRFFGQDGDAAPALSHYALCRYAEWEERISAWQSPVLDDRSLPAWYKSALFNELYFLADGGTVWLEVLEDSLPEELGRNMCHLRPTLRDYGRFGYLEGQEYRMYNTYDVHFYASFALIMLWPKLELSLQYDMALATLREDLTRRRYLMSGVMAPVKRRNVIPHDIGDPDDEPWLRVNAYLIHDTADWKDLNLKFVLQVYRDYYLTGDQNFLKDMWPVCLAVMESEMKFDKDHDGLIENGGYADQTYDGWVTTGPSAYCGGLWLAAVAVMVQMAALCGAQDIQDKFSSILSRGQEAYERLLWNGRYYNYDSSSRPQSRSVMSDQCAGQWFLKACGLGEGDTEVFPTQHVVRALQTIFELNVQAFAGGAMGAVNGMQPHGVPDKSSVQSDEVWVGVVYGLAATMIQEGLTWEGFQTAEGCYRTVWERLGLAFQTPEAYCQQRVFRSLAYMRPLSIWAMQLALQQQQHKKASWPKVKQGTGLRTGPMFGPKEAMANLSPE

Row | Compound | IC50 (GBA2) [nM] | rat α-glu. (% inhib.) [1] [%]
1 | O[C@H]1[C@H](O)CN(C[C@H]2CCCN(c3ccnc(C(F)(F)F)c3)C2)C[C@@H]1O [Example 173, (3S,4R,5R)-1-(((R)-1-(2-(trifluoromethyl)pyridin-4-yl)piperidin-3-yl)methyl)piperidine-3,4,5-triol] | < 100 | 3
2 | O[C@H]1[C@H](O)CN(C[C@@H]2CCCN(c3cc(C(F)(F)F)ccn3)C2)C[C@@H]1O [Example 176, (3S,4S,5R)-1-(((S)-1-(4-(trifluoromethyl)pyridin-2-yl)piperidin-3-yl)methyl)piperidine-3,4,5-triol] | 100 to 1000 | 0
3 | O[C@H]1[C@H](O)CN(C[C@@H]2CCCN(c3ccc(C(F)(F)F)cn3)C2)C[C@@H]1O [Example 177, (3S,4S,5R)-1-(((S)-1-(5-(trifluoromethyl)pyridin-2-yl)piperidin-3-yl)methyl)piperidine-3,4,5-triol] | 1000 to 25000 | 7
4 | O[C@H]1[C@H](O)CN(C[C@@H]2CCCN(c3ccncc3C(F)(F)F)C2)C[C@@H]1O [Example 179, (3S,4S,5R)-1-(((S)-1-(3-(trifluoromethyl)pyridin-4-yl)piperidin-3-yl)methyl)piperidine-3,4,5-triol] | 100 to 1000 | 6
5 | O[C@H]1[C@H](O)CN(C[C@H]2CC[C@@H](C(F)F)CC2)C[C@@H]1O [Example 186, (3S,4R,5R)-1-(((1s,4S)-4-(difluoromethyl)cyclohexyl)methyl)piperidine-3,4,5-triol] | 100 to 1000 | 8
6 | CC(F)(F)[C@H]1CC[C@@H](CN2C[C@@H](O)[C@H](O)[C@@H](O)C2)CC1 [Example 187, (3S,4R,5R)-1-(((1s,4S)-4-(1,1-difluoroethyl)cyclohexyl)methyl)piperidine-3,4,5-triol] | < 100 | 0
7 | CC(F)(F)[C@H]1CC[C@H](CN2C[C@@H](O)[C@H](O)[C@@H](O)C2)CC1 [Example 188, (3S,4R,5R)-1-(((1r,4R)-4-(1,1-difluoroethyl)cyclohexyl)methyl)piperidine-3,4,5-triol] | < 100 | 10
8 | O=C(C1CCCCC1)N1CCC(F)(CN2C[C@@H](O)[C@H](O)[C@@H](O)C2)CC1 [Example 191, Cyclohexyl(4-fluoro-4-(((3S,4r,5R)-3,4,5-trihydroxypiperidin-1-yl)methyl)piperidin-1-yl)methanone] | 100 to 1000 | 1
9 | O[C@H]1[C@H](O)CN(CC2(F)CCN(c3ccc(F)cc3)CC2)C[C@@H]1O [Example 192, (3S,4r,5R)-1-((4-fluoro-1-(4-fluorophenyl)piperidin-4-yl)methyl)piperidine-3,4,5-triol] | 100 to 1000 | 2
10 | O[C@H]1[C@H](O)CN(CC2(F)CCN(c3ccccc3C(F)(F)F)CC2)C[C@@H]1O [Example 193, (3S,4r,5R)-1-((4-fluoro-1-(2-(trifluoromethyl)phenyl)piperidin-4-yl)methyl)piperidine-3,4,5-triol] | < 100 | 2

More lines, main results first:

Row | IC50 (GBA2) [nM] | Compound | rat α-glu. (% inhib.) [1] [%]
11 | < 100 | O[C@H]1[C@H](O)CN(C[C@H]2CCCN(c3cncc(C(F)(F)F)c3)C2)C[C@@H]1O [Example 168, (3S,4R,5R)-1-(((R)-1-(5-(trifluoromethyl)pyridin-3-yl)piperidin-3-yl)methyl)piperidine-3,4,5-triol] | 7
12 | < 100 | O[C@H]1[C@H](O)CN(C[C@H]2CCCN(c3cc(C(F)(F)F)ccn3)C2)C[C@@H]1O [Example 169, (3S,4R,5R)-1-(((R)-1-(4-(trifluoromethyl)pyridin-2-yl)piperidin-3-yl)methyl)piperidine-3,4,5-triol] | 13
13 | < 100 | O[C@H]1[C@H](O)CN(C[C@H]2CCCN(c3ccc(C(F)(F)F)cn3)C2)C[C@@H]1O [Example 170, (3S,4R,5R)-1-(((R)-1-(5-(trifluoromethyl)pyridin-2-yl)piperidin-3-yl)methyl)piperidine-3,4,5-triol] | 14
14 | < 100 | O[C@H]1[C@H](O)CN(C[C@H]2CCCN(c3ccc(C(F)(F)F)nc3)C2)C[C@@H]1O [Example 171, (3S,4R,5R)-1-(((R)-1-(6-(trifluoromethyl)pyridin-3-yl)piperidin-3-yl)methyl)piperidine-3,4,5-triol] | 1
15 | < 100 | O[C@H]1[C@H](O)CN(C[C@H]2CCCN(c3ccncc3C(F)(F)F)C2)C[C@@H]1O [Example 172, (3S,4R,5R)-1-(((R)-1-(3-(trifluoromethyl)pyridin-4-yl)piperidin-3-yl)methyl)piperidine-3,4,5-triol] | 15
16 | < 100 | O[C@H]1[C@H](O)CN(C[C@@H]2CCCN(c3cccnc3C(F)(F)F)C2)C[C@@H]1O [Example 174, (3S,4S,5R)-1-(((S)-1-(2-(trifluoromethyl)pyridin-3-yl)piperidin-3-yl)methyl)piperidine-3,4,5-triol] | 3
17 | 100 to 1000 | O[C@H]1[C@H](O)CN(C[C@@H]2CCCN(c3cncc(C(F)(F)F)c3)C2)C[C@@H]1O [Example 175, (3S,4S,5R)-1-(((S)-1-(5-(trifluoromethyl)pyridin-3-yl)piperidin-3-yl)methyl)piperidine-3,4,5-triol] | 3
18 | 100 to 1000 | O[C@H]1[C@H](O)CN(C[C@@H]2CCCN(c3ccc(C(F)(F)F)nc3)C2)C[C@@H]1O [Example 178, (3S,4S,5R)-1-(((S)-1-(6-(trifluoromethyl)pyridin-3-yl)piperidin-3-yl)methyl)piperidine-3,4,5-triol] | 6
19 | 100 to 1000 | O[C@H]1[C@H](O)CN(C[C@H]2CC[C@H](C(F)F)CC2)C[C@@H]1O [Example 185, (3S,4R,5R)-1-(((1r,4R)-4-(difluoromethyl)cyclohexyl)methyl)piperidine-3,4,5-triol] | 3
20 | < 100 | O[C@H]1[C@H](O)CN(C[C@H]2CC[C@H](OC(F)(F)F)CC2)C[C@@H]1O [Example 189, (3S,4R,5R)-1-(((1r,4R)-4-(trifluoromethoxy)cyclohexyl)methyl)piperidine-3,4,5-triol] | 3
21 | < 100 | O[C@H]1[C@H](O)CN(CC2Cc3c(F)ccc(F)c3C2)C[C@@H]1O [Example 190, (3S,4r,5R)-1-((4,7-difluoro-2,3-dihydro-1H-inden-2-yl)methyl)piperidine-3,4,5-triol] | 4
22 | < 100 | O[C@H]1[C@H](O)CN(CC2(F)CCN(c3ncccc3C(F)(F)F)CC2)C[C@@H]1O [Example 194, (3S,4r,5R)-1-((4-fluoro-1-(3-(trifluoromethyl)pyridin-2-yl)piperidin-4-yl)methyl)piperidine-3,4,5-triol] | 4
23 | 100 to 1000 | O[C@H]1[C@H](O)CN(CC2(F)CCN(c3cccc(C(F)(F)F)n3)CC2)C[C@@H]1O [Example 195, (3S,4r,5R)-1-((4-fluoro-1-(6-(trifluoromethyl)pyridin-2-yl)piperidin-4-yl)methyl)piperidine-3,4,5-triol] | 5
